Patent publication US9309222B2, “Phenyl linked quinolinyl modulators of RORγt” (Janssen Pharmaceutica NV, priority 2012, dated 2016)
Where “and” joins values, the source holds several entries; their conditions need not be identical. Identical values can stand only once. Counter-ions that a name gives are not always drawn.

Legend:
[1] = target: T1, human RORγt ligand binding domain (RORγt LBD) (Homo sapiens, UniProt P51449); assay: RORγt ThermoFluor assay (thermal shift, ligand binding affinity); details: estimated from concentration response of thermal shift
T1 construct: His-tag (N); TurboTEV protease cleavage site (ENLYFQG) (N); made in house; host or cells: E. coli (pHIS1, modified pET vector)
T1 sequence (P51449 with tags, fused parts or gaps): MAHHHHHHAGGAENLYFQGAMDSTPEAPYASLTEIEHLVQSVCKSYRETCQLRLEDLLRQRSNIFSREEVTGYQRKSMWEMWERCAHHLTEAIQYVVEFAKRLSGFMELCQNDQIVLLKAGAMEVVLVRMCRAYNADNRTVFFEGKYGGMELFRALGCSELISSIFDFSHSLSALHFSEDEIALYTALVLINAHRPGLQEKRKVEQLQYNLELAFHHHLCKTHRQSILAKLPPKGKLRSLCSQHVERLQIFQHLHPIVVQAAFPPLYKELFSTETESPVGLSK
Summary of the method: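 Thermal shift of 0.065 mg/mL RORγt with 60 μM 1,8-ANS in 100 mM Hepes pH 7.0, 10 mM NaCl, 2.5 mM GSH, 0.002% Tween-20. Compounds in 1:2 series from 10 mM DMSO stock. Dye fluorescence (500 nm emission) tracked versus temperature; ΔTm used to derive KD.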

[2] = test system: IL-17 production by CD4 T cells; assay: Human Th17 assay (IL-17 production by CD4 T cells under Th17 differentiation conditions); assay type: cell-based; details: IL-17 in supernatant after 3 days
Summary of the method: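 Primary CD4+ T cells from healthy-donor PBMC, preincubated 1 h with titrated compound (0.2% DMSO), then activated with anti-CD3/CD28 beads plus anti-IL4, anti-IFNγ, IL1β, IL23, IL6, TGFβ and IL2.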

human RORγt LBD = target: T2, human RORγt LBD (Homo sapiens, UniProt P51449); assay: RORγt reporter assay (GAL4-RORγt LBD luciferase in HEK293T cells); assay type: cell-based; details: for IC50 / RORγt reporter Assay, % inhibition @ 6 μM: HEK293T cells; for IC50: 24 hours compound treatment; for inhibition at 6 µM: HEK-293T, read-out: RORγt reporter Assay, % inhibition @ 6 μM, HEK293T cells, 6 μM compound; for RORγt reporter Assay, % inhibition @ 6 μM: 6 μM compound
T2 construct: expressed in transfected cells
T2 sequence (P51449 258-518): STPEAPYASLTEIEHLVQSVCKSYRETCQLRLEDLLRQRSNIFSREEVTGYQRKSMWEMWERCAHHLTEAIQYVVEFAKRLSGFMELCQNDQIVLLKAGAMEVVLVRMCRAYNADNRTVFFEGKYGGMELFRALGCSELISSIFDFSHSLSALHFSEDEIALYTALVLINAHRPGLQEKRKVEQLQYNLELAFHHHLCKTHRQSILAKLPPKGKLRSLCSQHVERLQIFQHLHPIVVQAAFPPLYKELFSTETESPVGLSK
Summary of the method: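 Read-out is the firefly-to-renilla luciferase ratio versus compound concentration, after 24 h compound exposure of cells in phenol-red-free DMEM/5% lipid-reduced FCS. Cells were HEK293T bulk-transfected with a GAL4-responsive firefly reporter (pGL4.31) and GAL4 DBD–wild-type human RORγt LBD fusion (pBIND, renilla as transfection/viability control).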

Structure (SMILES) | Kd [1] [nM] | IC50 ([2]; Homo sapiens, CD4+ T, 72 h) [nM] | IC50 (human RORγt LBD) | inhibition at 6 µM (human RORγt LBD) [%] | IC50 [2] [nM] | RORγt reporter Assay, % inhibition @ 6 μM (human RORγt LBD; 6 µM) [%] | RORγt reporter Assay, % inhibition @ 6 μM (human RORγt LBD) [%]
COCCN(C)c1nc2ccc(C(O)(c3ccncc3)c3cncn3C)cc2c(Cl)c1-c1ccccc1 (stereo not drawn) [Example 63, {4-Chloro-2-[(2-methoxyethyl)(methyl)amino]-3-phenylquinolin-6-yl}(1-methyl-1H-imidazol-5-yl)pyridin-4-ylmethanol•TFA] | 15 | 63 | 8.6 nM | 106 |  |  | 
Cn1cncc1C(O)(c1cncnc1)c1ccc2nc(Cl)c(-c3ccccc3)c(Cl)c2c1 (stereo not drawn) [Example 120, (2,4-Dichloro-3-phenylquinolin-6-yl)(1-methyl-1H-imidazol-5-yl)(pyrimidin-5-yl)methanol] | 130 | 400 | 170 nM | 98 |  |  | 
CCOc1nc2ccc(C(O)(c3ccncc3)c3cncn3C)cc2c(Cl)c1-c1ccccc1 (stereo not drawn) [Example 88, (4-Chloro-2-ethoxy-3-phenylquinolin-6-yl)(1-methyl-1H-imidazol-5-yl)pyridin-4-ylmethanol•TFA] | 9.6 | 68 | 37 nM | 100 |  |  | 
OC(c1ccc(C(F)(F)F)cc1)(c1cccnc1)c1ccc2nc(Cl)c(-c3ccccc3)c(Cl)c2c1 (stereo not drawn) [Example 171, (2,4-Dichloro-3-phenylquinolin-6-yl)(pyridin-3-yl)(4-(trifluoromethyl)phenyl)methanol•TFA] | 140 | 300 | 320 nM | 85 |  |  | 
N#Cc1nc2ccc(C(O)(c3ccc(C(N)=O)nc3)c3cccc(Cl)c3)cc2c(C#N)c1-c1ccccc1 (stereo not drawn) [Example 112, 5-[(3-Chlorophenyl)(2,4-dicyano-3-phenylquinolin-6-yl)hydroxymethyl]pyridine-2-carboxamide•TFA] | 120 | 480 | 380 nM | 100 |  |  | 
OC(c1ccccc1)(c1cccnc1)c1ccc2nc(C(F)(F)F)c(-c3ccccc3)c(C(F)(F)F)c2c1 (stereo not drawn) [Example 170, Phenyl(3-phenyl-2,4-bis(trifluoromethyl)quinolin-6-yl)(pyridin-3-yl)methanol] | 4.2 | 96 | 35 nM | 98 |  |  | 
COc1cccc(C(O)(c2ccc(C)nc2)c2ccc3nc(Cl)c(-c4ccccc4)c(Cl)c3c2)c1 (stereo not drawn) [Example 69, (2,4-Dichloro-3-phenylquinolin-6-yl)(3-methoxyphenyl)(6-methylpyridin-3-yl)methanol•TFA] | 300 | 610 | 150 nM | 99 |  |  | 
O=C(O)C(F)(F)F.OC(c1cccnc1)(c1cccc(Cl)c1)c1ccc2nc(C(F)(F)F)c(-c3ccccc3)c(C(F)(F)F)c2c1 (stereo not drawn) [Example 165, (3-Chlorophenyl)(3-phenyl-2,4-bis(trifluoromethyl)quinolin-6-yl)(pyridin-3-yl)methanol•TFA] | 2.4 |  | 48 nM |  | 97 |  | 98
OC(c1ccc(Cl)cc1)(c1cccnc1)c1ccc2nc(Cl)c(-c3ccccc3)c(Cl)c2c1 (stereo not drawn) [Example 17, (4-Chlorophenyl)(2,4-dichloro-3-phenylquinolin-6-yl)(pyridin-3-yl)methanol] | 210 | 940 | 270 nM | 102 |  |  | 
COc1ccc(C(O)(c2ccc3nc(Cl)c(-c4ccccc4)c(Cl)c3c2)c2cncn2C)cn1 (stereo not drawn) [Example 10, (2,4-Dichloro-3-phenylquinolin-6-yl)(6-methoxypyridin-3-yl)(1-methyl-1H-imidazol-5-yl)methanol•TFA] | 29 | 590 | 150 nM | 98 |  |  | 
OC(c1cccnc1)(c1cccc(Cl)c1)c1ccc2nc(Cl)c(-c3ccccc3)c(Cl)c2c1 (stereo not drawn) [Example 25, (3-Chlorophenyl)(2,4-dichloro-3-phenylquinolin-6-yl)(pyridin-3-yl)methanol] | 65 | 340 | 94 nM and ~90 nM | 99 |  |  | 
Cc1cc(C(O)(c2ccc3nc(Cl)c(-c4ccccc4)c(Cl)c3c2)c2cncn2C)on1 (stereo not drawn) [Example 132, (2,4-Dichloro-3-phenylquinolin-6-yl)(1-methyl-1H-imidazol-5-yl)(3-methylisoxazol-5-yl)methanol•TFA] | 16 | 130 | 48 nM | 103 |  |  | 
Cc1ccc(C(O)(c2ccc3nc(Cl)c(-c4ccccc4)c(Cl)c3c2)c2cncn2C)c(C)n1 (stereo not drawn) [Example 142, (2,4-Dichloro-3-phenylquinolin-6-yl)(2,6-dimethylpyridin-3-yl)(1-methyl-1H-imidazol-5-yl)methanol] | 7.6 | 140 | 92 nM | 105 |  |  | 
CCN(CC)c1nc2ccc(C(O)(c3ccncc3)c3cncn3C)cc2c(C)c1-c1ccccc1 (stereo not drawn) [Example 102, [2-(Diethylamino)-4-methyl-3-phenylquinolin-6-yl](1-methyl-1H-imidazol-5-yl)pyridin-4-ylmethanol•TFA] | 41 | 150 | 140 nM | 104 |  |  | 
OC(c1ccc(Cl)nc1)(c1cccc(Cl)c1)c1ccc2nc(Cl)c(-c3ccccc3)c(Cl)c2c1 (stereo not drawn) [Example 56, (3-Chlorophenyl)(6-chloropyridin-3-yl)(2,4-dichloro-3-phenylquinolin-6-yl)methanol] | 40 | 240 | 170 nM | 91 |  |  | 

Next, values leading:

Kd [1] [nM] | IC50 ([2]; Homo sapiens, CD4+ T, 72 h) [nM] | IC50 (human RORγt LBD) | inhibition at 6 µM (human RORγt LBD) [%] | IC50 [2] [nM] | RORγt reporter Assay, % inhibition @ 6 μM (human RORγt LBD; 6 µM) [%] | RORγt reporter Assay, % inhibition @ 6 μM (human RORγt LBD) [%] | Structure (SMILES)
19 |  | 140 nM |  | 250 | 96 |  | Cn1cncc1C(O)(c1ccc(Cl)cc1)c1ccc2nc(Cl)c(-c3ccccc3Cl)c(Cl)c2c1 (single isomer, unassigned) [Example 153c, (4-Chlorophenyl)(2,4-dichloro-3-(2-chlorophenyl)quinolin-6-yl)(1-methyl-1H-imidazol-5-yl)methanol]
270 |  | 690 nM |  | 1600 | 93 |  | Cn1cncc1C(O)(c1ccc(Cl)cc1)c1ccc2nc(Cl)c(-c3ccccc3Cl)c(Cl)c2c1 (single isomer, unassigned) [Example 153b, (4-Chlorophenyl)(2,4-dichloro-3-(2-chlorophenyl)quinolin-6-yl)(1-methyl-1H-imidazol-5-yl)methanol]
41 | 700 | 260 nM |  |  | 97 |  | Cc1cc(C(O)(c2ccc(C(F)(F)F)nc2)c2cncn2C)cc2c(C#N)c(-c3ccc(F)cc3)c(C#N)nc12 (single isomer, unassigned) [Example 184c, 3-(4-Fluorophenyl)-6-(hydroxy(1-methyl-1H-imidazol-5-yl)(6-(trifluoromethyl)pyridin-3-yl)methyl)-8-methylquinoline-2,4-dicarbonitrile]
67000 |  | 1900 nM and ~3000 nM | 80 | ~5000 |  |  | COc1nc2c(C)cc(C(O)(c3ccc(F)cc3)c3cncn3C)cc2c(C#N)c1-c1cccc(F)c1 (single isomer, unassigned) [Example 180b, 3-(3-Fluorophenyl)-6-((4-fluorophenyl)(hydroxy)(1-methyl-1H-imidazol-5-yl)methyl)-2-methoxy-8-methylquinoline-4-carbonitrile]
3 |  | 3.8 nM | 94 | 27 |  |  | CC(=O)N1CCC(C(O)(c2ccccc2)c2ccc3nc(C(F)(F)F)c(-c4ccccc4)c(C(F)(F)F)c3c2)CC1 (single isomer, unassigned) [Example 169b, 1-(4-(Hydroxy(phenyl)(3-phenyl-2,4-bis(trifluoromethyl)quinolin-6-yl)methyl)piperidin-1-yl)ethanone]
64 | 110 | 140 nM |  |  | 95 |  | Cc1cc(C(O)(c2ccc(F)cc2)c2cncn2C)cc2c(C#N)c(-c3cccc(F)c3)c(C#N)nc12 (single isomer, unassigned) [Example 175c, 3-(3-Fluorophenyl)-6-((4-fluorophenyl)(hydroxy)(1-methyl-1H-imidazol-5-yl)methyl)-8-methylquinoline-2,4-dicarbonitrile]
